The source of these data is patent US20170233413A1, “SUBSTITUTED ANNULATED PYRIMIDINES AND USE THEREOF” (Bayer Pharma Aktiengesellschaft, priority 2014, published 2017).

Test [1] addresses T1, recombinant guanylate cyclase reporter cell line (Rattus norvegicus, UniProt P19686+P20595).
T1 construct: expressed in transfected cells
T1 sequence (P19686 1-690): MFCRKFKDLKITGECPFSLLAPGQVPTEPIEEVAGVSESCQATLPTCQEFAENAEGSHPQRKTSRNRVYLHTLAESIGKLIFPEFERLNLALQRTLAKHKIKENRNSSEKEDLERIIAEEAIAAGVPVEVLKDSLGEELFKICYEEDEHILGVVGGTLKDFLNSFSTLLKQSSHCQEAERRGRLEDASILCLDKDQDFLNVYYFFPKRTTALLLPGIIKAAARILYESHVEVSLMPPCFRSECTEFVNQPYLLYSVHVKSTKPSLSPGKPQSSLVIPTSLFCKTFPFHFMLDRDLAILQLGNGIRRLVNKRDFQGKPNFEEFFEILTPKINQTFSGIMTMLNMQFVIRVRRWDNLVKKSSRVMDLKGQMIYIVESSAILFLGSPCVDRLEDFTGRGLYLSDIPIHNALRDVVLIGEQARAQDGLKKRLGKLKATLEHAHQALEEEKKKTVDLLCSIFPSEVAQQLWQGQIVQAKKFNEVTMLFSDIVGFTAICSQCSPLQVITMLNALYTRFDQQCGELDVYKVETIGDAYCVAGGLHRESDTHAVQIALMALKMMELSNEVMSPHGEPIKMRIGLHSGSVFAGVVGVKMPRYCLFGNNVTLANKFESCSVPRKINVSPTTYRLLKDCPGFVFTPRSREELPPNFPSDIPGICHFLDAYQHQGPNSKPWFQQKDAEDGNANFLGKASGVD
T1 sequence (P20595 1-619): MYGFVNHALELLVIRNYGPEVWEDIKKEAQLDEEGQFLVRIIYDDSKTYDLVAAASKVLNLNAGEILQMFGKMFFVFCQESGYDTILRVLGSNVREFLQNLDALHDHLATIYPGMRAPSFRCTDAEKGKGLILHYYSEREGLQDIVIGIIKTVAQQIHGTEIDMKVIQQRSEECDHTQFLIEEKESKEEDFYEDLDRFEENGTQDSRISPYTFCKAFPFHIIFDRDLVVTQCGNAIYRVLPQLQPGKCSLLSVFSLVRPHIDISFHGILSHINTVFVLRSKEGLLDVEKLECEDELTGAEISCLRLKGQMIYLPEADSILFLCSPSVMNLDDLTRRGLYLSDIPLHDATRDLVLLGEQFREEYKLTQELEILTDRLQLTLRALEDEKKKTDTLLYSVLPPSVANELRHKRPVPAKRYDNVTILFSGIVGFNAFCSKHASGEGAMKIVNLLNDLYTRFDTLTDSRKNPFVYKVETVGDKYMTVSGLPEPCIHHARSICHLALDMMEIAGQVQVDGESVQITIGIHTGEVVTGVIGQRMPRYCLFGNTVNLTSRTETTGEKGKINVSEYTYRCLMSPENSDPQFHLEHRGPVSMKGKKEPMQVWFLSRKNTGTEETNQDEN
Put plainly: Effect on a recombinant guanylate cyclase reporter cell line. It counts as cell-based. To be noted: MEC = minimum effective concentration; in some cases means of individual determinations. The essentials: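 Values are reported as MEC, sometimes averaged over individual determinations. The test system is a reporter cell line expressing recombinant rat guanylate cyclase.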

Test [2] has as its target T2, human phosphodiesterase 5 (PDE 5) (Homo sapiens, UniProt O76074).
T2 construct: PDE 5 preparations are obtained from human platelets by disruption; from tissue; host or cells: human platelets
The experiment in a line: Inhibition of human phosphodiesterase 5 (PDE 5). Type of test: biochemical. To be noted: PDE 5 preparation from human platelets; in some cases means of individual determinations. An outline of the steps: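 IC50 comes from percent inhibition over a 1:3 series with final levels of 4 to 0.0018 μM. Reaction: tritiated cGMP tracer (0.025 μCi) with platelet-derived, Mono Q-purified enzyme, 1 h at room temperature in Tris pH 7.5, under 70% turnover. Read-out by scintillation proximity beads.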

As for `Cn1ccc(NC(=O)c2nc(-c3nn(Cc4ccccc4F)c4ncccc34)nc3c2C(C)(C)C(=O)N3)n1` [Example 70, 2-[1-(2-fluorobenzyl)-1H-pyrazolo[3,4-b]pyridin-3-yl]-5,5-dimethyl-N-(1-methyl-1H-pyrazol-3-yl)-6-oxo-6,7-dihydro-5H-pyrrolo[2,3-d]pyrimidine-4-carboxamide], in test [1], the MEC stood at 0.3 µM. Also, the IC50 in test [2] turned out to be 24 nM.
As to `Cc1nnc(NC(=O)c2nc(-c3nn(Cc4ccccc4F)c4ncccc34)nc3c2C(C)(C)C(=O)N3)o1` [Example 71, 2-[1-(2-fluorobenzyl)-1H-pyrazolo[3,4-b]pyridin-3-yl]-5,5-dimethyl-N-(5-methyl-1,3,4-oxadiazol-2-yl)-6-oxo-6,7-dihydro-5H-pyrrolo[2,3-d]pyrimidine-4-carboxamide], the MEC in test [1] was determined as 0.3 µM. In test [2], this molecule registered an IC50 of 170 nM.
As to `CC1(C)C(=O)Nc2nc(-c3nn(Cc4ccccc4F)c4ncccc34)nc(C(=O)Nc3nccs3)c21` [Example 72, 2-[1-(2-fluorobenzyl)-1H-pyrazolo[3,4-b]pyridin-3-yl]-5,5-dimethyl-6-oxo-N-(1,3-thiazol-2-yl)-6,7-dihydro-5H-pyrrolo[2,3-d]pyrimidine-4-carboxamide], the MEC in test [1] turned out to be 1 µM. Moreover, in test [2], 46 nM corresponded to half-maximal inhibition (IC50).
In the case of `CC1(C)C(=O)Nc2nc(-c3nn(Cc4ccccc4F)c4ncccc34)nc(C(=O)NCCSC(F)(F)F)c21` [Example 73, 2-[1-(2-fluorobenzyl)-1H-pyrazolo[3,4-b]pyridin-3-yl]-5,5-dimethyl-6-oxo-N-{2-[(trifluoromethyl)sulfanyl]ethyl}-6,7-dihydro-5H-pyrrolo[2,3-d]pyrimidine-4-carboxamide], the MEC in test [1] is 0.3 µM. For the same molecule, the half-inhibitory concentration (IC50) in test [2] amounted to 52 nM.
`CC1(C)C(=O)Nc2nc(-c3nn(Cc4ccccc4F)c4ncccc34)nc(C(=O)NCCC(F)(F)F)c21` [Example 74, 2-[1-(2-fluorobenzyl)-1H-pyrazolo[3,4-b]pyridin-3-yl]-5,5-dimethyl-6-oxo-N-(3,3,3-trifluoropropyl)-6,7-dihydro-5H-pyrrolo[2,3-d]pyrimidine-4-carboxamide]: in test [1], the MEC amounted to 0.1 µM. Moreover, it took 26 nM to reach half-maximal inhibition in test [2] (IC50).
`CC1(C)C(=O)Nc2nc(-c3nn(Cc4ccccc4F)c4ncccc34)nc(C(=O)Nc3cc(F)cc(F)c3)c21` [Example 76, N-(3,5-difluorophenyl)-2-[1-(2-fluorobenzyl)-1H-pyrazolo[3,4-b]pyridin-3-yl]-5,5-dimethyl-6-oxo-6,7-dihydro-5H-pyrrolo[2,3-d]pyrimidine-4-carboxamide]: the MEC in test [1] amounted to 1 µM. This molecule returned a 50% inhibitory concentration (IC50) in test [2] of 60 nM.
For the molecule `CC1(C)C(=O)Nc2nc(-c3nn(Cc4ccccc4F)c4ncccc34)nc(C(=O)Nc3cc(F)c(F)c(F)c3)c21` [Example 77, 2-[1-(2-fluorobenzyl)-1H-pyrazolo[3,4-b]pyridin-3-yl]-5,5-dimethyl-6-oxo-N-(3,4,5-trifluorophenyl)-6,7-dihydro-5H-pyrrolo[2,3-d]pyrimidine-4-carboxamide], in test [1], the MEC amounted to 1 µM. In addition, inhibition in test [2] was half-maximal at 87 nM (IC50).
For the molecule `CONC(=O)c1nc(-c2nn(Cc3ccccc3F)c3ncccc23)nc2c1C(C)(C)C(=O)N2` [Example 79, 2-[1-(2-fluorobenzyl)-1H-pyrazolo[3,4-b]pyridin-3-yl]-N-methoxy-5,5-dimethyl-6-oxo-6,7-dihydro-5H-pyrrolo[2,3-d]pyrimidine-4-carboxamide], in test [1], the MEC was 0.1 µM. This molecule had a concentration for half-maximal inhibition (IC50) in test [2] of 30 nM.
For the molecule `C[C@H](NC(=O)c1nc(-c2nn(Cc3ccccc3F)c3ncccc23)nc2c1C(C)(C)C(=O)N2)C(N)=O` [Example 80, N-[(2S)-1-amino-1-oxopropan-2-yl]-2-[1-(2-fluorobenzyl)-1H-pyrazolo[3,4-b]pyridin-3-yl]-5,5-dimethyl-6-oxo-6,7-dihydro-5H-pyrrolo[2,3-d]pyrimidine-4-carboxamide], the MEC in test [1] came to 1 µM. Besides, the IC50 in test [2] came to 23 nM.
For `CCCNC(=O)c1nc(-c2nn(Cc3ccccc3F)c3ncccc23)nc2c1C(C)(C)C(=O)N2` [Example 81, 2-[1-(2-fluorobenzyl)-1H-pyrazolo[3,4-b]pyridin-3-yl]-5,5-dimethyl-6-oxo-N-propyl-6,7-dihydro-5H-pyrrolo[2,3-d]pyrimidine-4-carboxamide] the same measures were 0.1 µM and 15 nM.
Consider `CC1(C)C(=O)Nc2nc(-c3nn(Cc4ccccc4F)c4ncccc34)nc(C(=O)NC3(C4CC4)CC3)c21` [Example 82, N-[1,1′-bi(cyclopropyl)-1-yl]-2-[1-(2-fluorobenzyl)-1H-pyrazolo[3,4-b]pyridin-3-yl]-5,5-dimethyl-6-oxo-6,7-dihydro-5H-pyrrolo[2,3-d]pyrimidine-4-carboxamide], for which the MEC in test [1] came out at 0.1 µM. In test [2], this molecule came in with an IC50 of 8.6 nM.
With `CC1(C)C(=O)Nc2nc(-c3nn(Cc4ccccc4F)c4ncccc34)nc(C(=O)NCCF)c21` [Example 83, 2-[1-(2-fluorobenzyl)-1H-pyrazolo[3,4-b]pyridin-3-yl]-N-(2-fluoroethyl)-5,5-dimethyl-6-oxo-6,7-dihydro-5H-pyrrolo[2,3-d]pyrimidine-4-carboxamide], the MEC in test [1] was determined as 0.1 µM. Moreover, the half-inhibitory concentration (IC50) in test [2] stood at 13 nM.
On to `CC1(C)C(=O)Nc2nc(-c3nn(Cc4ccccc4F)c4ncccc34)nc(C(=O)NCC3CC3)c21` [Example 84, N-(cyclopropylmethyl)-2-[1-(2-fluorobenzyl)-1H-pyrazolo[3,4-b]pyridin-3-yl]-5,5-dimethyl-6-oxo-6,7-dihydro-5H-pyrrolo[2,3-d]pyrimidine-4-carboxamide], for which the MEC in test [1] came out at 0.1 µM. The same molecule returned an IC50 in test [2] of 23 nM.
As for `CC(C)=CCNC(=O)c1nc(-c2nn(Cc3ccccc3F)c3ncccc23)nc2c1C(C)(C)C(=O)N2` [Example 85, 2-[1-(2-fluorobenzyl)-1H-pyrazolo[3,4-b]pyridin-3-yl]-5,5-dimethyl-N-(3-methylbut-2-en-1-yl)-6-oxo-6,7-dihydro-5H-pyrrolo[2,3-d]pyrimidine-4-carboxamide], in test [1], the MEC stood at 0.1 µM. In addition, the IC50 in test [2] was found to be 38 nM.
On the same counts, the results for `CNC(=O)c1nc(-c2nn(Cc3ccccc3F)c3ncccc23)nc2c1C(C)(C)C(=O)N2` [Example 86, 2-[1-(2-fluorobenzyl)-1H-pyrazolo[3,4-b]pyridin-3-yl]-N,5,5-trimethyl-6-oxo-6,7-dihydro-5H-pyrrolo[2,3-d]pyrimidine-4-carboxamide] are 0.1 µM and 44 nM.
Consider `CC1(C)C(=O)Nc2nc(-c3nn(Cc4ccccc4F)c4ncccc34)nc(C(=O)Nc3cc[nH]n3)c21` [Example 87, 2-[1-(2-fluorobenzyl)-1H-pyrazolo[3,4-b]pyridin-3-yl]-5,5-dimethyl-6-oxo-N-(1H-pyrazol-3-yl)-6,7-dihydro-5H-pyrrolo[2,3-d]pyrimidine-4-carboxamide], for which the MEC in test [1] is 0.3 µM. This molecule registered an IC50 in test [2] of 24 nM.
Consider `CC1(C)C(=O)Nc2nc(-c3nn(Cc4ccccc4F)c4ncccc34)nc(C(=O)Nc3cccnc3)c21` [Example 89, 2-[1-(2-fluorobenzyl)-1H-pyrazolo[3,4-b]pyridin-3-yl]-5,5-dimethyl-6-oxo-N-(pyridin-3-yl)-6,7-dihydro-5H-pyrrolo[2,3-d]pyrimidine-4-carboxamide], for which the MEC in test [1] turned out to be 0.3 µM. In test [2], this molecule came in with an IC50 of 9 nM.
With `COCCCNC(=O)c1nc(-c2nn(Cc3ccccc3F)c3ncccc23)nc2c1C(C)(C)C(=O)N2` [Example 90, 2-[1-(2-fluorobenzyl)-1H-pyrazolo[3,4-b]pyridin-3-yl]-N-(3-methoxypropyl)-5,5-dimethyl-6-oxo-6,7-dihydro-5H-pyrrolo[2,3-d]pyrimidine-4-carboxamide], the MEC in test [1] was found to be 0.1 µM. In test [2], this molecule showed a 50% inhibitory concentration (IC50) of 14 nM.
